Measurements taken from patent US20240174679A1, “HETEROAROYL AMIDES AS LRRK2 INHIBITORS, PHARMACEUTICAL COMPOSITIONS, AND USES THEREOF” (MERCK SHARP & DOHME LLC, priority 2021, published 2024).

Target: GST tagged truncated human mutant G2019S LRRK2 (Homo sapiens (Human), UniProt Q5S007, G2019S)
Experiment: LRRK2 Km ATP LanthaScreen Assay
Type: biochemical
Settings: 134 μM ATP (Km ATP), LRRKtide substrate, negative log of mean IC50 (molar)
Procedure, shortened: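 Truncated GST-tagged G2019S LRRK2 (1.25 nM enzyme solution) was preincubated with compound for 15 min at rt, then reacted for 90 min with fluorescein-LRRKtide and 134 μM ATP (Km) in Tris pH 8.5/MgCl2 buffer. After an EDTA stop, TR-FRET used a Tb anti-pERM antibody (520/495 nm ratio). IC50 came from a 4-parameter fit and is reported as pIC50, mean of several runs.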

GST tagged truncated human mutant G2019S LRRK2, sequence (Q5S007 970-2527 G2019S): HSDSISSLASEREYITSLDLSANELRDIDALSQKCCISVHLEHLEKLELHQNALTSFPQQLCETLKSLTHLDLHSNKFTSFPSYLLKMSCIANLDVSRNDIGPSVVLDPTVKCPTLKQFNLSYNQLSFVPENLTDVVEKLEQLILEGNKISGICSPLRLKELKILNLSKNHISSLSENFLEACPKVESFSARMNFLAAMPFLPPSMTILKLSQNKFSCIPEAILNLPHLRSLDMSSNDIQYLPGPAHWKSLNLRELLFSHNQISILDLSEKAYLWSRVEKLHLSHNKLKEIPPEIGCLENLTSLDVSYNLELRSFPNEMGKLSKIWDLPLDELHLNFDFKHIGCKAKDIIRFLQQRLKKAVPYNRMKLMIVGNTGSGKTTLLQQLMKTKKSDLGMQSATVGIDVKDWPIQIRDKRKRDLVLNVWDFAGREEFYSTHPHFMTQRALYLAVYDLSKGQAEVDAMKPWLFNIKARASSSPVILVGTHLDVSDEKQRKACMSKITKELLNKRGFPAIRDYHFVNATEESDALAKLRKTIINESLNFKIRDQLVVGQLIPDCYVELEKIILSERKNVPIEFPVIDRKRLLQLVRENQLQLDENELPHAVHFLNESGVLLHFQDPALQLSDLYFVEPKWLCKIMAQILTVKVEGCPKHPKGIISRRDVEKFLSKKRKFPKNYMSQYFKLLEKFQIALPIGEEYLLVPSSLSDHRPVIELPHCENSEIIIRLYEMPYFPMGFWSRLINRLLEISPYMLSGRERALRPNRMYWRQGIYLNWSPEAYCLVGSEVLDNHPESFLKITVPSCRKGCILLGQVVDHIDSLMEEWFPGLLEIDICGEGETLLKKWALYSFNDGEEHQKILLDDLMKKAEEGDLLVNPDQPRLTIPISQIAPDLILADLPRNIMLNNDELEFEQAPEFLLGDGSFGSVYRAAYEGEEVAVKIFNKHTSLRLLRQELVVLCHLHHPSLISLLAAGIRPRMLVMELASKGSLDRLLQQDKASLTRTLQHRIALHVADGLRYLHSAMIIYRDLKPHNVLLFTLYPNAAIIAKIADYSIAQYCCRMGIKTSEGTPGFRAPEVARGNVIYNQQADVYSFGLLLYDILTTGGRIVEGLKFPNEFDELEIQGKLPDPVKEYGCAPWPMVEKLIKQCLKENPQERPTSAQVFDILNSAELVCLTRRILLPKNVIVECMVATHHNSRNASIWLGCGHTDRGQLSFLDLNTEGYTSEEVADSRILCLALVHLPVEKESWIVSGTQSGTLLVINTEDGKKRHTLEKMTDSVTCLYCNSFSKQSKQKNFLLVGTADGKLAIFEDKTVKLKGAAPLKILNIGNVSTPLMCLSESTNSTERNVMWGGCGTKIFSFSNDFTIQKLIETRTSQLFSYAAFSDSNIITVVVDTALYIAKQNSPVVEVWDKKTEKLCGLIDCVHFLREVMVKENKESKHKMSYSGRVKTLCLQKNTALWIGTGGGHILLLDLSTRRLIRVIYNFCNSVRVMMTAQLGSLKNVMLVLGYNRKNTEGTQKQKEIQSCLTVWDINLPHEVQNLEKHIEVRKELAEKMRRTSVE

Structure (SMILES) | LRRK2 pIC50
Cc1cc(-n2cc(NC(=O)c3csc(-c4cn[nH]c4)n3)cn2)cc(C)n1 [Example 8-4, N-[1-(2,6-dimethylpyridin-4-yl)-1H-pyrazol-4-yl]-2-(1H-pyrazol-4-yl)-1,3-thiazole-4-carboxamide] | 7.82
Cn1cc(-c2cccc(C(=O)Nc3cnn(C4CCC4)c3)n2)cn1 [Example 9-1, N-(1-Cyclobutyl-1H-pyrazol-4-yl)-6-(1-methyl-1H-pyrazol-4-yl)picolinamide] | 7.27
O=C(Nc1cnn(CC2CCC2)c1)c1cccc(-c2cncnc2)n1 [Example 9-2, N-[1-(cyclobutylmethyl)-1H-pyrazol-4-yl]-6-pyrimidin-5-ylpyridine-2-carboxamide] | 5.74
O=C(Nc1cnn(C2CCC2)c1)c1csc(-c2cnn3c2CCC3)n1 [Example 9-3, N-(1-cyclobutyl-1H-pyrazol-4-yl)-2-(5,6-dihydro-4H-pyrrolo[1,2-b]pyrazol-3-yl)-1,3-thiazole-4-carboxamide] | 8.01
CCn1cc(-c2nc(C(=O)Nc3cnn(C4CCC4)c3)cs2)cn1 [Example 9-4, N-(1-cyclobutyl-1H-pyrazol-4-yl)-2-(1-ethyl-1H-pyrazol-4-yl)-1,3-thiazole-4-carboxamide] | 7.41
O=C(Nc1cnn(CC2CCC2)c1)c1cccc(-c2ccoc2)n1 [Example 9-5, N-[1-(cyclobutylmethyl)-1H-pyrazol-4-yl]-6-furan-3-ylpyridine-2-carboxamide] | 5.79
O=C(Nc1cnn(CC2CCC2)c1)c1cccc(-c2cnn(Cc3ccncc3)c2)n1 [Example 9-6, N-[1-(cyclobutylmethyl)-1H-pyrazol-4-yl]-6-[1-(pyridin-4-ylmethyl)-1H-pyrazol-4-yl]pyridine-2-carboxamide] | 6.18
CC1COc2c(-c3cccc(C(=O)Nc4cnn(CC5CCC5)c4)n3)cnn2C1 (centres unmarked) [Example 9-7, N-[1-(cyclobutylmethyl)-1H-pyrazol-4-yl]-6-(6-methyl-6,7-dihydro-5H-pyrazolo[5,1-b][1,3]oxazin-3-yl)pyridine-2-carboxamide] | 6.87
O=C(Nc1cnn(CC2CCC2)c1)c1cccc(-c2cnn(Cc3ccccn3)c2)n1 [Example 9-8, N-[1-(cyclobutylmethyl)-1H-pyrazol-4-yl]-6-[1-(pyridin-2-ylmethyl)-1H-pyrazol-4-yl]pyridine-2-carboxamide] | 6.54
Cn1cnc(-c2nc(C(=O)Nc3cnn(C4CCC4)c3)cs2)c1 [Example 9-9, N-(1-cyclobutyl-1H-pyrazol-4-yl)-2-(1-methyl-1H-imidazol-4-yl)-1,3-thiazole-4-carboxamide] | 8.04
O=C(Nc1cnn(CC2CCC2)c1)c1cccc(-c2cnn3c2COCC3)n1 [Example 9-10, N-[1-(cyclobutylmethyl)-1H-pyrazol-4-yl]-6-(6,7-dihydro-4H-pyrazolo[5,1-c][1,4]oxazin-3-yl)pyridine-2-carboxamide] | 7.76
O=C(Nc1cnn(CC2CCC2)c1)c1cccc(-c2ccc(F)cc2F)n1 [Example 9-11, N-[1-(cyclobutylmethyl)-1H-pyrazol-4-yl]-6-(2,4-difluorophenyl) pyridine-2-carboxamide] | 5.63
COCCn1cc(-c2cccc(C(=O)Nc3cnn(CC4CCC4)c3)n2)cn1 [Example 9-12, N-[1-(cyclobutylmethyl)-1H-pyrazol-4-yl]-6-[1-(2-methoxyethyl)-1H-pyrazol-4-yl]pyridine-2-carboxamide] | 6.95
O=C(Nc1cnn(CC2CCC2)c1)c1cccc(-c2cnn3c2CCCC3)n1 [Example 9-13, N-[1-(cyclobutylmethyl)-1H-pyrazol-4-yl]-6-(4,5,6,7-tetrahydropyrazolo [1,5-a]pyridin-3-yl)pyridine-2-carboxamide] | 7.68
O=C(Nc1cnn(C2CCC2)c1)c1csc(-c2cc[nH]n2)n1 [Example 9-14, N-(1-cyclobutyl-1H-pyrazol-4-yl)-2-(1H-pyrazol-3-yl)-1,3-thiazole-4-carboxamide] | 7.41
O=C(Nc1cnn(CC2CCC2)c1)c1cccc(-c2cnsc2)n1 [Example 9-15, N-[1-(cyclobutylmethyl)-1H-pyrazol-4-yl]-6-isothiazol-4-ylpyridine-2-carboxamide] | 6.66
O=C(Nc1cnn(CC2CCC2)c1)c1cccc(-c2ccncc2)n1 [Example 9-16, N-[1-(cyclobutylmethyl)-1H-pyrazol-4-yl]-2,4′-bipyridine-6-carboxamide] | 5.04
O=C(Nc1cnn(C2CCC2)c1)c1csc(-c2cnn(C(F)F)c2)n1 [Example 9-17, N-(1-cyclobutyl-1H-pyrazol-4-yl)-2-[1-(difluoromethyl)-1H-pyrazol-4-yl]-1,3-thiazole-4-carboxamide] | 7.50
Cc1[nH]ncc1-c1nc(C(=O)Nc2cnn(C3CCC3)c2)cs1 [Example 9-18, N-(1-cyclobutyl-1H-pyrazol-4-yl)-2-(5-methyl-1H-pyrazol-4-yl)-1,3-thiazole-4-carboxamide] | 7.59

Structure (SMILES) | LRRK2 pIC50
O=C(Nc1cnn(CC2CCC2)c1)c1cccc(-c2ccnnc2)n1 [Example 9-19, N-[1-(cyclobutylmethyl)-1H-pyrazol-4-yl]-6-pyridazin-4-ylpyridine-2-carboxamide] | 5.22
Cn1nccc1-c1cccc(C(=O)Nc2cnn(CC3CCC3)c2)n1 [Example 9-20, N-[1-(cyclobutylmethyl)-1H-pyrazol-4-yl]-6-(1-methyl-1H-pyrazol-5-yl)pyridine-2-carboxamide] | 5.07
O=C(Nc1cnn(C2CCC2)c1)c1csc(-c2cnn3c2OCCC3)n1 [Example 9-21, N-(1-cyclobutyl-1H-pyrazol-4-yl)-2-(6,7-dihydro-5H-pyrazolo[5,1-b][1,3]oxazin-3-yl)-1,3-thiazole-4-carboxamide] | 8.08
Cn1ccc(-c2cccc(C(=O)Nc3cnn(CC4CCC4)c3)n2)n1 [Example 9-22, N-[1-(cyclobutylmethyl)-1H-pyrazol-4-yl]-6-(1-methyl-1H-pyrazol-3-yl)pyridine-2-carboxamide] | 6.53
Cn1cc(-c2nccc(C(=O)Nc3cnn(C4CCC4)c3)n2)cn1 [Example 9-23, N-(1-cyclobutyl-1H-pyrazol-4-yl)-2-(1-methyl-1H-pyrazol-4-yl)pyrimidine-4-carboxamide] | 7.47
O=C(Nc1cnn(CC2CCC2)c1)c1cccc(-c2cccnc2F)n1 [Example 9-24, N-[1-(cyclobutylmethyl)-1H-pyrazol-4-yl]-2′-fluoro-2,3′-bipyridine-6-carboxamide] | 7.16
Cn1cc(-c2cccc(C(=O)Nc3cnn(CC4CCC4)c3)n2)cn1 [Example 9-25, N-[1-(cyclobutylmethyl)-1H-pyrazol-4-yl]-6-(1-methyl-1H-pyrazol-4-yl)pyridine-2-carboxamide] | 7.38
Cc1n[nH]c(C)c1-c1cccc(C(=O)Nc2cnn(CC3CCC3)c2)n1 [Example 9-26, N-[1-(cyclobutylmethyl)-1H-pyrazol-4-yl]-6-(3,5-dimethyl-1H-pyrazol-4-yl)pyridine-2-carboxamide] | 6.09
O=C(Nc1cnn(C2CCC2)c1)c1csc(-c2cnn3c2CCCC3)n1 [Example 9-27, N-(1-cyclobutyl-1H-pyrazol-4-yl)-2-(4,5,6,7-tetrahydropyrazolo [1,5-a]pyridin-3-yl)-1,3-thiazole-4-carboxamide] | 8.25
Cn1cc(-c2nc(C(=O)Nc3cnn(C4CCC4)c3)cs2)cn1 [Example 9-28, N-(1-cyclobutyl-1H-pyrazol-4-yl)-2-(1-methyl-1H-pyrazol-4-yl)-1,3-thiazole-4-carboxamide] | 7.85
N#Cc1cccc(-c2cccc(C(=O)Nc3cnn(CC4CCC4)c3)n2)c1 [Example 9-29, 6-(3-cyanophenyl)-N-[1-(cyclobutylmethyl)-1H-pyrazol-4-yl]pyridine-2-carboxamide] | 5.51
COc1ccncc1-c1cccc(C(=O)Nc2cnn(CC3CCC3)c2)n1 [Example 9-30, N-[1-(cyclobutylmethyl)-1H-pyrazol-4-yl]-4′-methoxy-2,3′-bipyridine-6-carboxamide] | 6.76
O=C(Nc1cnn(CC2CCC2)c1)c1cccc(-c2csc3ccccc23)n1 [Example 9-31, 6-(1-benzothiophen-3-yl)-N-[1-(cyclobutylmethyl)-1H-pyrazol-4-yl]pyridine-2-carboxamide] | 5.18
Cn1ccc(-c2cccc(C(=O)Nc3cnn(CC4CCC4)c3)n2)c1 [Example 9-32, N-[1-(cyclobutylmethyl)-1H-pyrazol-4-yl]-6-(1-methyl-1H-pyrrol-3-yl)pyridine-2-carboxamide] | 6.59
O=C(Nc1cnn(CC2CCC2)c1)c1cccc(-c2cnn(C(F)F)c2)n1 [Example 9-33, N-[1-(cyclobutylmethyl)-1H-pyrazol-4-yl]-6-[1-(difluoromethyl)-1H-pyrazol-4-yl]pyridine-2-carboxamide] | 6.75
O=C(Nc1cnn(CC2CCC2)c1)c1cccc(-c2cccnc2)n1 [Example 9-34, N-[1-(cyclobutylmethyl)-1H-pyrazol-4-yl]-2,3′-bipyridine-6-carboxamide] | 6.90
O=C(Nc1cnn(CC2CCC2)c1)c1cccc(-c2cnn(CCN3CCOCC3)c2)n1 [Example 9-35, N-[1-(cyclobutylmethyl)-1H-pyrazol-4-yl]-6-[1-(2-morpholin-4-ylethyl)-1H-pyrazol-4-yl]pyridine-2-carboxamide] | 5.32
O=C(Nc1cnn(CC2CCC2)c1)c1cccc(-c2cnn(Cc3cccnc3)c2)n1 [Example 9-36, N-[1-(cyclobutylmethyl)-1H-pyrazol-4-yl]-6-[1-(pyridin-3-ylmethyl)-1H-pyrazol-4-yl]pyridine-2-carboxamide] | 6.90
Cn1cc(-c2cccc(C(=O)Nc3cnn(C4CCC4)c3)c2F)cn1 [Example 9-38, N-(1-cyclobutyl-1H-pyrazol-4-yl)-2-fluoro-3-(1-methyl-1H-pyrazol-4-yl)benzamide] | 7.10
